Source: patent US10975068B2, “6-aminopyridin-3-yl thiazoles as modulators of RORγT” (Janssen Pharmaceutica NV, priority 2016, dated 2021)
Read-outs that look alike come from different tables or passages of the source. One block for each molecule: values may come before it.

Columns and labels:
[1] = molecular target: human RORγt ligand binding domain (RORγt LBD) (Homo sapiens (Human), UniProt P51449); experiment: RORγt ThermoFluor® assay (thermal shift binding); details: read-out: ThermoFluor® Assay, Kd
Sequence of human RORγt ligand binding domain (RORγt LBD) (P51449 other isoform, or with tags, fused parts or gaps): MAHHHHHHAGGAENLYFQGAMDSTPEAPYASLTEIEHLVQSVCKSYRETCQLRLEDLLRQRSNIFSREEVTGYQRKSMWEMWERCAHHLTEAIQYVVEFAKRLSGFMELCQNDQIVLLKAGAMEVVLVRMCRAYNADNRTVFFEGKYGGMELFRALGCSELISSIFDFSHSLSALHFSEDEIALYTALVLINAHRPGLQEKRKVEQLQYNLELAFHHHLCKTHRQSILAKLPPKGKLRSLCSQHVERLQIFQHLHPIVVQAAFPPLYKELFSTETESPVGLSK
Summary of the method: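 His-tagged human RORγt LBD (0.065 mg/mL) with 60 μM 1,8-ANS in 100 mM Hepes pH 7.0, 10 mM NaCl, 2.5 mM GSH, 0.002% Tween-20 was heated at 1 °C/min.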

[2] = molecular target: full-length human RORγt (Homo sapiens (Human), UniProt P51449); experiment: RORγt (full-length human) reporter assay, Conditions B or C; type: cell-based; details: for inhibition at 3 µM: at 3 μM compound concentration; for RORγt (FL) Reporter Assay B or C, % inhibition (value marked *): marked *: footnote not given
Sequence of full-length human RORγt (P51449 other isoform, or with tags, fused parts or gaps): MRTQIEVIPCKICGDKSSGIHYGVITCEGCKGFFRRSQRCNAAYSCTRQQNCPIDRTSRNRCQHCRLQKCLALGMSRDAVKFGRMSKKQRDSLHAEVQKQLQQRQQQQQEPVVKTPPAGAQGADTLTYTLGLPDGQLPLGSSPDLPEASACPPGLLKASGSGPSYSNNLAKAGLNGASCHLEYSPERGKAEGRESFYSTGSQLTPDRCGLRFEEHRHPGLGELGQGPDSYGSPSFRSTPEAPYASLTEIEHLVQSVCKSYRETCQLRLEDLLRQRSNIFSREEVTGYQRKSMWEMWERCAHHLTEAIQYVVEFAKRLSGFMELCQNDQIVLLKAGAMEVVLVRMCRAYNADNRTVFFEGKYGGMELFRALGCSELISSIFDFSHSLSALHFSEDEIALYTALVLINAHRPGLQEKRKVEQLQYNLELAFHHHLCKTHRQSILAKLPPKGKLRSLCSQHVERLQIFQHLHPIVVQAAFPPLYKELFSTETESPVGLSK
Summary of the method: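 HEK293T cells transiently co-transfected with GAL4-DBD–full-length human RORγt (nt 142-1635, NM_001001523.1) plus GAL4-firefly and CMV-Renilla luciferase reporters; compounds added 4-6 h post-transfection for 16-20 h in 1.3% FBS, 0.1% DMSO. Firefly signal normalized to DMSO and saturating reference compound, then to Renilla; IC50 from concentration plots.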

[3] = read-out: RORγt (FL) Reporter Assay B or C, % inhibition
[4] = read-out: RORγt (FL) Reporter Assay B or C, IC50
[5] = Conditions B or C, read-out: RORγt (FL) Reporter Assay B or C, IC50
[6] = RORγt (FL) Reporter Assay B or C, IC50 (μM), Conditions B or C

Kd [1]: 6.7 nM | inhibition at 3 µM [2, 3]: 107% | IC50 [2, 4]: 0.012 µM
SMILES: CC[C@H](Nc1cc(C(F)F)c(-c2sc(C(=O)N[C@@H]3CC[C@@H]3O)nc2C(=O)N2CCC[C@@H]2C)cn1)C(F)(F)F (relative stereo) [Example 381, 5-(4-(Difluoromethyl)-6-(((S)-1,1,1-trifluorobutan-2-yl)amino)pyridin-3-yl)-N-((1R*,2S*)-2-hydroxycyclobutyl)-4-((S)-2-methylpyrrolidine-1-carbonyl)thiazole-2-carboxamide]

Kd [1]: 9.9 nM | inhibition at 3 µM [2, 3]: 102% | IC50 [2, 4]: 0.13 µM
SMILES: C[C@H](Nc1cc(C(F)F)c(-c2sc(C(=O)N[C@@H]3CC[C@H]3O)nc2C(=O)N2CCC[C@@H]2C)cn1)C(F)(F)F (relative stereo) [Example 387, 5-(4-(Difluoromethyl)-6-(((S)-1,1,1-trifluoropropan-2-yl)amino)pyridin-3-yl)-N-(1R*,2R*)-2-hydroxycyclobutyl)-4-((S)-2-methylpyrrolidine-1-carbonyl)thiazole-2-carboxamide]

Kd [1]: 18 nM | inhibition at 3 µM [2, 3]: 109% | IC50 [2, 4]: 0.079 µM
SMILES: CC[C@H](Nc1cc(C(F)F)c(-c2sc(C(=O)N3CC4CCC(C3)O4)nc2C(=O)N2CCC[C@@H]2C)cn1)C(F)(F)F [Example 378, [5-[4-(Difluoromethyl)-6-[[(1S)-1-(trifluoromethyl)propyl]amino]-3-pyridyl]-2-(8-oxa-3-azabicyclo[3.2.1]octane-3-carbonyl)thiazol-4-yl]-[(2S)-2-methylpyrrolidin-1-yl]methanone]

Kd [1]: 12 nM | inhibition at 3 µM [2, 3]: 99% | IC50 [2, 4]: 0.028 µM
SMILES: C[C@H](Nc1cc(C(F)F)c(-c2sc(C(=O)N[C@H]3CC[C@H]3O)nc2C(=O)N2CCC[C@@H]2C)cn1)C(F)(F)F (relative stereo) [Example 390, 5-(4-(Difluoromethyl)-6-(((S)-1,1,1-trifluoropropan-2-yl)amino)pyridin-3-yl)-N-((1S*,2R*)-2-hydroxycyclobutyl)-4-((S)-2-methylpyrrolidine-1-carbonyl)thiazole-2-carboxamide]

Kd [1]: 50 nM | inhibition at 3 µM [2, 3]: 106% | IC50 [2, 4]: 0.23 µM
SMILES: C[C@H](Nc1cc(C(F)F)c(-c2sc(C(=O)N3CC(S(C)(=O)=O)C3)nc2C(=O)N2CCC[C@@H]2C)cn1)C(F)(F)F [Example 450]

Kd [1]: 9.4 nM | inhibition at 3 µM [2, 3]: 99% | IC50 [2, 4]: 0.072 µM
SMILES: C[C@H](Nc1cc(C(F)F)c(-c2sc(C(=O)NC3CCC3O)nc2C(=O)N2CCC[C@@H]2C)cn1)C(F)(F)F (stereo partly drawn) [Example 386, 5-(4-(Difluoromethyl)-6-(((S)-1,1,1-trifluoropropan-2-yl)amino)pyridin-3-yl)-N-(trans-2-hydroxycyclobutyl)-4-((S)-2-methylpyrrolidine-1-carbonyl)thiazole-2-carboxamide]

Kd [1]: 10 nM | inhibition at 3 µM [2, 3]: 106% | IC50 [2, 4]: 0.082 µM
SMILES: C[C@H]1CCCN1C(=O)c1nc(C(=O)N2C[C@@H]3C[C@H]2CO3)sc1-c1cnc(NC(C)(C)C)cc1C(F)(F)F [Example 360, [5-[6-(tert-Butylamino)-4-(trifluoromethyl)-3-pyridyl]-2-[(1S,4S)-2-oxa-5-azabicyclo[2.2.1]heptane-5-carbonyl]thiazol-4-yl]-[(2S)-2-methylpyrrolidin-1-yl]methanone]

Kd [1]: 0.38 nM | inhibition at 3 µM [2, 3]: 124% | IC50 [2, 4]: 0.0038 µM
SMILES: C[C@H]1CCCN1C(=O)c1nc(C(=O)NC2CCCC2O)sc1-c1cnc(NC(C)(C)C)cc1C(F)(F)F (stereo partly drawn) [Example 347, 5-[6-(tert-Butylamino)-4-(trifluoromethyl)-3-pyridyl]-N-[cis-2-hydroxycyclopentyl]-4-[(2S)-2-methylpyrrolidine-1-carbonyl]thiazole-2-carboxamide]

More lines, now with the values behind:

SMILES: C[C@H]1CCCN1C(=O)c1nc(C(=O)N[C@H]2C[C@H](O)C2)sc1-c1cnc(NC(C)(C)C)cc1C(F)(F)F [Example 258, 5-[6-(tert-Butylamino)-4-(trifluoromethyl)-3-pyridyl]-N-((1r,3S)-3-hydroxycyclobutyl)-4-[(2S)-2-methylpyrrolidine-1-carbonyl]thiazole-2-carboxamide]
Kd [1]: 3.5 nM | inhibition at 3 µM [2, 3]: 110% | IC50 [2, 4]: 0.065 µM

SMILES: CC(C)(O)CNC(=O)c1nc(C(=O)N2C3CCC2CC3)c(-c2cnc(NC(C)(C)C)cc2C(F)(F)F)s1 [Example 79, 4-((1s,4s)-7-Azabicyclo[2.2.1]heptane-7-carbonyl)-5-(6-(tert-butylamino)-4-(trifluoromethyl)pyridin-3-yl)-N-(2-hydroxy-2-methylpropyl)thiazole-2-carboxamide]
Kd [1]: 1.2 nM | RORγt (FL) Reporter Assay B or C, % inhibition (value marked *) ([2]; Conditions B or C): 111* % | IC50 [2, 5]: 0.0083 µM

SMILES: C[C@H](Nc1cc(C(F)(F)F)c(-c2sc(C(=O)NCC3(O)CCC3)nc2C(=O)N2CCC[C@@H]2C)cn1)C1CC1 [Example 49, 5-(6-(((S)-1-Cyclopropylethyl)amino)-4-(trifluoromethyl)pyridin-3-yl)-N-((1-hydroxycyclobutyl)methyl)-4-((S)-2-methylpyrrolidine-1-carbonyl)thiazole-2-carboxamide]
Kd [1]: 3.3 nM | RORγt (FL) Reporter Assay B or C, % inhibition (value marked *) ([2]; Conditions B or C): 99* % | IC50 [2, 5]: 0.0076 µM

SMILES: C[C@H]1CCCN1C(=O)c1nc(C(=O)NC2(CO)CCC2)sc1-c1cnc(NC(C)(C)C)cc1C(F)(F)F [Example 262, 5-[6-(tert-Butylamino)-4-(trifluoromethyl)-3-pyridyl]-N-[1-(hydroxymethyl)cyclobutyl]-4-[(2S)-2-methylpyrrolidine-1-carbonyl]thiazole-2-carboxamide]
Kd [1]: 1.6 nM | inhibition at 3 µM [2, 3]: 104% | IC50 [2, 4]: 0.02 µM

SMILES: C[C@H]1CC(F)(F)CN1C(=O)c1nc(C(=O)NCC(C)(C)O)sc1-c1cnc(NCC2(C(F)(F)F)CC2)cc1C(F)F [Example 275, 4-[(2S)-4,4-Difluoro-2-methyl-pyrrolidine-1-carbonyl]-5-[4-(difluoromethyl)-6-[[1-(trifluoromethyl)cyclopropyl]methylamino]-3-pyridyl]-N-(2-hydroxy-2-methyl-propyl)thiazole-2-carboxamide]
Kd [1]: 2 nM | inhibition at 3 µM [2, 3]: 99% | IC50 [2, 4]: 0.014 µM

SMILES: CC[C@H](Nc1cc(C(F)(F)F)c(-c2sc(C(=O)N[C@@H]3COC[C@H]3O)nc2C(=O)N2C3CCC2CC3)cn1)C(F)(F)F [Example 155]
Kd [1]: 1.1 nM | RORγt (FL) Reporter Assay B or C, % inhibition (value marked *) ([2]; Conditions B or C): 103* % | IC50 [2, 6]: 0.0058 µM

SMILES: C[C@H]1CC(F)(F)CN1C(=O)c1nc(C(=O)NC2CCS(=O)(=O)CC2)sc1-c1cnc(NC2(C)CCC2)cc1C(F)F [Example 328, (S)-4-(4,4-Difluoro-2-methylpyrrolidine-1-carbonyl)-5-(4-(difluoromethyl)-6-((1-methylcyclobutyl)amino)pyridin-3-yl)-N-(1,1-dioxidotetrahydro-2H-thiopyran-4-yl)thiazole-2-carboxamide]
Kd [1]: 0.31 nM | inhibition at 3 µM [2, 3]: 87% | IC50 [2, 4]: 0.051 µM

SMILES: CC(C)(O)CNC(=O)c1nc(C(=O)N2C3CCC2CC3)c(-c2cnc(NC3(C(F)(F)F)CCC3)cc2C(F)(F)F)s1 [Example 99, 4-((1s,4s)-7-Azabicyclo[2.2.1]heptane-7-carbonyl)-N-(2-hydroxy-2-methylpropyl)-5-(4-(trifluoromethyl)-6-((1-(trifluoromethyl)cyclobutyl)amino)pyridin-3-yl)thiazole-2-carboxamide]
Kd [1]: 0.58 nM | RORγt (FL) Reporter Assay B or C, % inhibition (value marked *) ([2]; Conditions B or C): 108* % | IC50 [2, 5]: 0.011 µM

SMILES: C[C@H]1CCCN1C(=O)c1nc(C(=O)NC2(CO)CC2)sc1-c1cnc(NC(C)(C)C)cc1C(F)(F)F [Example 263, 5-[6-(tert-Butylamino)-4-(trifluoromethyl)-3-pyridyl]-N-[1-(hydroxymethyl)cyclopropyl]-4-[(2S)-2-methylpyrrolidine-1-carbonyl]thiazole-2-carboxamide]
Kd [1]: 1.1 nM | inhibition at 3 µM [2, 3]: 107% | IC50 [2, 4]: 0.0066 µM

SMILES: C[C@H]1CCCN1C(=O)c1nc(C(=O)N[C@H]2C[C@H](O)C2)sc1-c1cnc(NC2(C)CCC2)cc1C(F)F [Example 323, 5-(4-(Difluoromethyl)-6-((1-methylcyclobutyl)amino)pyridin-3-yl)-N-((1r,3S)-3-hydroxycyclobutyl)-4-((S)-2-methylpyrrolidine-1-carbonyl)thiazole-2-carboxamide]
Kd [1]: 8.2 nM | inhibition at 1 µM ([2]; at 1 μM compound concentration, read-out: RORγt (FL) Reporter Assay B or C, % inhibition): 97% | IC50 [2, 4]: 0.15 µM

SMILES: C[C@H](Nc1cc(C(F)(F)F)c(-c2sc(C(=O)N[C@@H]3COC[C@H]3O)nc2C(=O)N2C3CCC2CC3)cn1)C(F)(F)F [Example 150, 4-((1s,4s)-7-Azabicyclo[2.2.1]heptane-7-carbonyl)-N-((3R,4S)-4-hydroxytetrahydrofuran-3-yl)-5-(4-(trifluoromethyl)-6-(((1S)-2,2,2-trifluoro-1-methyl-ethyl)amino)-3-pyridyl)thiazole-2-carboxamide]
Kd [1]: 3.2 nM | RORγt (FL) Reporter Assay B or C, % inhibition (value marked *) ([2]; Conditions B or C): 111* % | IC50 [2, 6]: 0.035 µM

SMILES: C[C@H](Nc1cc(C(F)F)c(-c2sc(C(=O)N[C@H](C)C(C)(C)O)nc2C(=O)N2CCC[C@@H]2C)cn1)C(F)(F)F [Example 200, 5-(4-(Difluoromethyl)-6-(((S)-1,1,1-trifluoropropan-2-yl)amino)pyridine-3-yl)-N—((R)-3-hydroxy-3-methylburan-2-yl)-4-((S)-2-methylpyrrolidine-1-carbonyl)thiazole-2-carboxamide]
Kd [1]: 12 nM | RORγt (FL) Reporter Assay B or C, % inhibition (value marked *) ([2]; Conditions B or C): 104* % | IC50 [2, 5]: 0.2 µM
